One experiment concerns the target Human Cot (Homo sapiens (Human), UniProt P41279). The experiment is described as follows: High Throughput Cot Biochemical Assay. To be noted: Cot HTRF (TR-FRET KinEASE) biochemical assay, 400 μM ATP. Background: TR-FRET usually uses a lanthanide donor and a delayed reading to cut background.
A further experiment has as its system TNFα. The experiment is described as follows: Cot Monocyte TNFα Cell Based Assay.
[1] abbreviates: read-out: EC50 TNF, LPS-stimulated human monocytes, TNFα TR-FRET.
The mark [2] stands for this setting: Homo sapiens, Monocyte, read-out: EC50 TNF, LPS-stimulated human monocytes, TNFα TR-FRET.

We go through nine compounds from patent US11066414B2, “Cot modulators and methods of use thereof” (Gilead Sciences, Inc., priority 2015, dated 2021).

One may read the IC50 as the concentration that gives 50% inhibition. What is called EC50 is the concentration giving half of the maximal effect.

Where two headings read alike, the source gives them in different places.

Chain of Human Cot (P41279 30-397): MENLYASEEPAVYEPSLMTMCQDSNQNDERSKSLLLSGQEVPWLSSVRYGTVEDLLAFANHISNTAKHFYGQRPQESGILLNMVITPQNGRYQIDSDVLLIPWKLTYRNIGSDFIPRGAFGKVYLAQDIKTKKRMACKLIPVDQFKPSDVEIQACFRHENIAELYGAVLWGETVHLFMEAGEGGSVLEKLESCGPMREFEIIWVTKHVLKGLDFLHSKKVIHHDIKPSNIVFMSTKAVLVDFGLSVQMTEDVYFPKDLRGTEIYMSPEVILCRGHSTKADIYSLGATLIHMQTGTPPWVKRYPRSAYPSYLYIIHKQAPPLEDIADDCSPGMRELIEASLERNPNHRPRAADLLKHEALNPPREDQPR
Description for TNFα: The cell suspension was then plated at a density of 5,000 cells/well onto black 384 well Greiner clear bottom plates. Plates were pre-spotted with test compounds and serially diluted in DMSO where 200 nL/well were delivered using the Echo 550 acoustic liquid dispenser (Labcyte®) for a final DMSO concentration of 0.5%. Plated cells were treated with compound for 1 hour at 37° C. Cells were then stimulated with 50 pg/ml of LPS (Sigma) excluding outside columns of plate used for unstimulated cell control wells. Cells were incubated for an additional 4 hours at 37° C. Cells were then spun out of the media and 5 μl of sample were taken and analyzed for total TNFα content using the TR-FRET Human TNFα detection system (CisBio). This system utilizes two labeled antibodies (cryptate and XL665) that bind to two different epitopes of the TNFα molecule and produce FRET signal proportional to the concentration of TNFα in the sample. […] Plates were covered with clear seals and incubated at room temp overnight. […] Percent of control was calculated as follows: % Control=100×(RatioSample−Ratio0% Stimulation)/(Ratio100% Stimulation−Ratio0% Stimulation) where unstimulated cells (0% stimulation) were the negative control and stimulated cells (100% stimulation) were used as the positive control.

`Cc1nc(F)ccc1[C@H](Nc1cc(C#N)c2ncc(C#N)c(NCC(C)(C)C(F)(F)F)c2c1)c1cn(C2(C3CC3)CC2)nn1` [Example 867, (S)-6-(((4-(1-(1,1-bi(cyclopropan)]-1-yl)-1H-1,2,3-triazol-4-yl)(6-fluoro-2-methylpyridin-3-yl)methyl)amino)-4-((3,3,3-trifluoro-2,2-dimethylpropyl)amino)quinoline-3,8-dicarbonitrile]: the IC50 at Human Cot (read-out: IC50 HTRF) was 3 nM. The EC50 with TNFα (setting [1]) turned out to be 27 nM.
Compound `COc1c([C@@H](Nc2cc(C#N)c3ncc(C#N)c(NCC(C)(C)C)c3c2)c2ccc(F)nc2C)nnn1C12CC(C1)C2` [Example 868, (S)-6-(((1-(bicyclo[1.1,1]pentan-1-yl)-5-methoxy-1H-1,2,3-triazol-4-yl)(6-fluoro-2-methylpyridin-3-yl)methyl)amino)-4-(neopentylamino)quinoline-3,8-dicarbonitrile] came in with a half-maximal inhibitory concentration (IC50) against Human Cot (IC50 HTRF) of 2 nM. For the same compound, the EC50 in the experiment on TNFα (setting [2]) is 70 nM.
Take `CC(C)(C)CNc1c(C#N)cnc2c(C#N)cc(N[C@H](c3cn(C4(C(F)F)CC4)nn3)c3cccc4c(=O)n(CC(F)F)ccc34)cc12` [Example 870, (S)-6-(((2-(2,2-difluoroethyl)-1-oxo-1,2-dihydroisoquinolin-5-yl)(1-(1-(difluoromethyl)cyclopropyl)-1H-1,2,3-triazol-4-yl)methyl)amino)-4-(neopentylamino)quinoline-3,8-dicarbonitrile]: it took 2 nM to reach half-maximal inhibition on Human Cot (IC50 HTRF) (IC50). The EC50 in the experiment with TNFα (setting [2]) was found to be 169 nM.
As to `Cn1ccc2c([C@H](Nc3cc(C#N)c4ncc(C#N)c(NCC(C)(C)C)c4c3)c3cn(C4(C(F)F)CC4)nn3)cccc2c1=O` [Example 871], on Human Cot (read-out: IC50 HTRF), the IC50 worked out at 1 nM. Further, the EC50 in the experiment on TNFα (setting [1]) came to 32 nM.
In the case of `Cc1nc(F)ccc1[C@H](Nc1cc(C#N)c2ncc(C#N)c(NCC(C)(C)C)c2c1)c1cn(C2CC23CC3)nn1` (stereo partly drawn) [Example 872, 6-(((1S)-(6-fluoro-2-methylpyridin-3-yl)(1-(spiro[2.2]pentan-1-yl)-1H-1,2,3-triazol-4-yl)methyl)amino)-4-(neopentylamino)quinoline-3,8-dicarbonitrile], at Human Cot (IC50 HTRF), the IC50 amounted to 1 nM. Further, the EC50 in the experiment on TNFα (setting [2]) was 15 nM.
Consider `CC(C)(C)CNc1c(C#N)cnc2c(C#N)cc(N[C@H](c3cn(C4(C(F)(F)F)CC4)nn3)c3cccc4c(=O)n(CC(F)F)ccc34)cc12` [Example 874, (S)-6-(((2-(2,2-difluoroethyl)-1-oxo-1,2-dihydroisoquinolin-5-yl)(1-(1-(trifluoromethyl)cyclopropyl)-1H-1,2,3-triazol-4-yl)methyl)amino)-4-(neopentylamino)quinoline-3,8-dicarbonitrile], for which, on Human Cot (IC50 HTRF), the IC50 was found to be 3 nM. Besides, the EC50 with TNFα (setting [2]) came out at 73 nM.
In turn, `CC(C)(C)CNc1c(C#N)cnc2c(C#N)cc(N[C@H](c3cn(C4(C(F)(F)F)CC4)nn3)c3cccc4c(=O)n(CC(F)(F)F)ccc34)cc12` [Example 875, (S)-4-(neopentylamino)-6-(((1-oxo-2-(2,2,2-trifluoroethyl)-1,2-dihydroisoquinolin-5-yl)(1-(1-(trifluoromethyl)cyclopropyl)-1H-1,2,3-triazol-4-yl)methyl)amino)quinoline-3,8-dicarbonitrile] registered an IC50 against Human Cot (IC50 HTRF) of 2 nM. The EC50 in the experiment on TNFα (setting [2]) amounted to 166 nM.
As to `CC(C)(C)CNc1c(C#N)cnc2c(C#N)cc(N[C@H](c3cn(C4(C(F)F)CC4)nn3)c3cccc4c(=O)[nH]ccc34)cc12` [Example 876, (S)-6-(((1-(1-(difluoromethyl)cyclopropyl)-1H-1,2,3-triazol-4-yl)(1-oxo-1,2-dihydroisoquinolin-5-yl)methyl)amino)-4-(neopentylamino)quinoline-3,8-dicarbonitrile], at Human Cot (IC50 HTRF), the IC50 was found to be 2 nM. The EC50 with TNFα (setting [2]) turned out to be 385 nM.
The corresponding values for `C[C@@H](CF)n1cc([C@@H](Nc2cc(C#N)c3ncc(C#N)c(NCC(C)(C)C)c3c2)c2cccc3c(=O)n(C)ccc23)nn1` [Example 877, 6-(((S)-(1-((S)-1-fluoropropan-2-yl)-1H-1,2,3-triazol-4-yl)(2-methyl-1-oxo-1,2-dihydroisoquinolin-5-yl)methyl)amino)-4-(neopentylamino)quinoline-3,8-dicarbonitrile] are 2 nM and 34 nM.
